The values that follow come from patent US9808470B2, “Estrogenic components for use in the treatment of neurological disorders” (UNIVERSITE DE LIEGE, priority 2012, dated 2017).

This assay concerns myelin-related mRNA (CNP, MAG, MBP). As to the kind of experiment: Ex.6 IL-1β induced diffuse white matter injury mouse model: myelin gene expression at P10 (qRT-PCR). The format is in vivo. Here is the method: Experimental protocols were approved by the institutional guidelines of the Institut National de la Santé et de la Recherche Scientifique (Inserm, France), and met the guidelines for the United States Public Health Service's Policy on Humane Care and Use of Laboratory Animals (NIH, Bethesda, Md., USA). Experiments were performed using OF1 strain mice purchased from Charles River (L'Arbresle, France) and born in our animal facility. Animals were housed under a 12 h light-dark cycle, had access to food and water ad libitum. Sex was determined at birth and confirmed at sacrifice. To avoid any potential variability linked to sex to differences. only male pups were used. Mice received twice a day from P1 to P4 and once on P5 a 5 μl intraperitoneal injection containing either PBS alone (sham group) or 10 μg/kg/dose recombinant mouse IL-1β in PBS. Vehicle group received only IL-1β injections while 10 μg E4 (5 mg/kg) or 20 μg E4 (10 mg/kg) was added to IL-1β once a day from P1 to P5 for E4 treated groups. Pups were sacrificed 3 hours after the first intraperitoneal injection at P1, 3 hours after last treatment at P5 or at P10 by intracardiac perfusion with NaCl 0.9% after anaesthesia by inhaled isoflurane.
At P10, anterior cortex and underneath white matter were collected and immediately frozen in nitrogen liquid, before storage at −80° C. for study of myelin-related mRNA expression.
Preparation of samples for quantitative reverse-transcriptase polymerase-chain reaction (qRT-PCR), primer design, and PCR protocol, were similar to that previously described (Favrais et al., 2011; Chhor et al., 2013). Briefly, RNA extraction was performed by with RNeasy mini kit according to the manufacturer's instructions (Qiagen, Courtaboeuf, France). RNA quality and concentration were assessed by spectrophotometry with the Nanodrop™ apparatus (Thermoscientific, Wilmington, Del., USA). Total RNA (0.5-1 μg) was subjected to reverse transcription using the iScript™ cDNA synthesis kit (Bio-Rad, Marnes-la-Coquette, France). qPCR was using SYBR Green Supermix (Bio-Rad). The relative expression of genes of interest (GOI) were expressed relative to expression of the reference gene, ribosomal protein L13a (Rpl13a) for CD11b+ cells and Glyceraldehyde 3-phosphate dehydrogenase (GAPDH) for O4+ cells and anterior brains based on reference gene suitability testing. Analyses were performed with the Biorad CFX manager 2.1 software. The relative quantities are expressed as the specific ratio between the gene of interest and Rpl13 or GAPDH. The data are presented as relative mRNA units with respect to control values (expressed as a fold-difference with respect to the mean of sham values).
Background: Quantitative PCR measures a nucleic acid by following its amplification.

For the compound `C[C@]12CC[C@@H]3c4ccc(O)cc4CC[C@H]3[C@@H]1[C@@H](O)[C@@H](O)[C@@H]2O` [E4, 1,3,5(10)-estratrien-3,15α,16α,17β-tetrol], where the note is “E4 5 mg/kg, vs IL-1β”, the “CNP mRNA” value is recorded as “significant increase” and the “MAG mRNA” value is recorded as “significant increase”. Besides, the MBP expression result (E4 5 mg/kg, vs control group) was “not statistically different”. Also, the “MBP expression, increase” value (E4 5 mg/kg, vs vehicle group (p=0.11)) is reported as “not significant”. Further, the “expression of myelin genes (MAG, MBP, CNP)” value (IL-1β+E4 10 mg/kg, vs IL-1β) is reported as “No difference”.
